{"source": "patent US20060167115A1", "about": "“Compositions for the preservation of timber” (priority 2003, published 2006)", "key": {"Coniophora puteana": {"test_system": "Coniophora puteana", "assay": "Biological efficacy test (EN 113), agar medium", "assay_type": "cell-based", "description": "(§1) Two fungi were used: Coniophora puteana Brown rot fungus) and Poria placenta (Brown rot fungus). The preservative used was TBBA (waterborne). Seven concentrations of the preservative was used: 3.0%, 2.0%, 1.5%, 1.0%, 0.5%, 0.05%, and 0.0% (w/w), i.e. the carrier solution in the absence of the active material. All wood blocks were of Scots pine sapwood (Pinus sylvestris) with an approximate volume of 18.75 cm^3 (50 mm×25 mm×15 mm) in accordance with European standard EN 113. • Treated test specimens: 2 (fungi)×7 (preservative concentrations)×1 (preservative)×4 (replicates)=56 test blocks • Untreated test specimens (for exposure alongside treated blocks): 2 (fungi)×7 (preservative concentrations)×1 (preservative)×4 (replicates)=56 test blocks • Untreated test specimens (virulence): 2 (fungi)×6 (replicates)=12 test blocks • Treated check test specimens: 4 (replicates)×7 (preservative concentrations)×1 (preservative)=28 test blocks\n(§2) After block impregnation, according to European standard EN 113, and conditioning were completed, all the blocks were sterilized using ionizing radiation according to the conditions set out in EN 113. The incubation period for the test (length of block exposure to the chosen basidiomycete fungi) was 16 weeks.\n(§3) It was noted that some waterlogging of certain test and control specimens had occurred. In keeping with the EN 113 format, weight changes for particular waterlogged specimens, when these are clearly unrepresentative of a group, were not included in the mean figures presented. In addition, weight losses of unrepresentative specimens generally, were not included in the mean figures presented."}, "Poria placenta": {"test_system": "Poria placenta", "assay": "Biological efficacy test (EN 113), agar medium", "assay_type": "cell-based", "description": "as §1, §2, §3"}}}
{"compound": "CC(C)(c1cc(Br)c(O)c(Br)c1)c1cc(Br)c(O)c(Br)c1", "note": "[TBBA, Tetrabromobisphenol A]", "values": [{"measurement": "Corrected mean loss in mass (%)", "setting": "Coniophora puteana; TBBA waterborne 0.05% w/w, retention 0.39 kg/m^3, 16 weeks", "value": "46.82 (6.31) %"}, {"measurement": "Corrected mean loss in mass (%)", "setting": "Coniophora puteana; TBBA waterborne 0.5% w/w, retention 3.78 kg/m^3, 16 weeks", "value": "34.87 (13.21) %"}, {"measurement": "Corrected mean loss in mass (%)", "setting": "Coniophora puteana; TBBA waterborne 1.0% w/w, retention 7.30 kg/m^3, 16 weeks", "value": "37.27 (—) %"}, {"measurement": "Corrected mean loss in mass (%)", "setting": "Coniophora puteana; TBBA waterborne 1.5% w/w, retention 11.12 kg/m^3, 16 weeks", "value": "−1.30 (1.16) %"}, {"measurement": "Corrected mean loss in mass (%)", "setting": "Coniophora puteana; TBBA waterborne 2.0% w/w, retention 15.24 kg/m^3, 16 weeks", "value": "−6.79 (0.34) %"}, {"measurement": "Corrected mean loss in mass (%)", "setting": "Coniophora puteana; TBBA waterborne 3.0% w/w, retention 23.65 kg/m^3, 16 weeks", "value": "−1.06 (0.69) %"}, {"measurement": "Corrected mean loss in mass (%)", "setting": "Poria placenta; TBBA waterborne 0.05% w/w, retention 0.25 kg/m^3, 16 weeks", "value": "30.94 (2.90) %"}, {"measurement": "Corrected mean loss in mass (%)", "setting": "Poria placenta; TBBA waterborne 0.5% w/w, retention 3.79 kg/m^3, 16 weeks", "value": "7.94 (19.35) %"}, {"measurement": "Corrected mean loss in mass (%)", "setting": "Poria placenta; TBBA waterborne 1.0% w/w, retention 7.71 kg/m^3, 16 weeks", "value": "6.17 (14.50) %"}, {"measurement": "Corrected mean loss in mass (%)", "setting": "Poria placenta; TBBA waterborne 1.5% w/w, retention 11.81 kg/m^3, 16 weeks", "value": "−2.19 (070) %"}, {"measurement": "Corrected mean loss in mass (%)", "setting": "Poria placenta; TBBA waterborne 2.0% w/w, retention 12.84 kg/m^3, 16 weeks", "value": "−6.21 (0.44) %"}, {"measurement": "Corrected mean loss in mass (%)", "setting": "Poria placenta; TBBA waterborne 3.0% w/w, retention 20.70 kg/m^3, 16 weeks", "value": "−1.67 (0.22) %"}]}
